Source: US12391698B2, “Substituted piperidines and piperazines and methods for the treatment of CNS disorders” (SUVEN LIFE SCIENCES LIMITED, priority 2022, dated 2025)
Where a name gives a salt, the structure may show the parent alone. Read-outs that look alike come from different tables or passages of the source.

What was measured:
[1] = target: T1, cloned human 5-HT2A receptor (Homo sapiens, UniProt P28223); test: Determination of Ki at 5-HT2A receptor (radioligand binding, [3H]-Ketanserine); conditions: CHO-K1 recombinant cells, [3H]-Ketanserine 1.25 nM
T1 construct: expressed in transfected cells; host or cells: CHO-K1
How it was run: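 Membranes from CHO-K1 cells expressing the receptor, incubated 1 h at r.t. with 1.25 nM [3H]-ketanserin in pH 7.4 Tris-HCl 50 mM, 4 mM CaCl2, 0.1% ascorbic acid. Nonspecific binding defined with 0.1 mM 1-naphthylpiperazine; bound label measured after filtration.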

[2] = Rodent pharmacokinetic study; format: in vivo, Male Wistar rats; conditions: rat, plasma, mean ± S.D, n = 3; for bioavailability: oral 3 mg/kg vs intravenous 1 mg/kg, read-out: F (Bioavailability)
Procedure: Male Wistar rats (260±50 g) were used as experimental animals. Animals were housed individually in polypropylene cage. Two days prior to study, male Wistar rats were anesthetized with isoflurane for surgical placement of jugular vein catheter. Rats were randomly divided for oral (3 mg/kg) and intravenous (1 mg/kg) dosing (n=3/group) and fasted overnight before oral dosing (p.o.). However, food and water were provided ad libitum to the rats allocated for intravenous dosing.
At pre-determined time points, blood samples were collected through jugular vein and replenished with an equivalent volume of normal saline. Collected blood was transferred into a labeled eppendorf tube containing 10 μL of heparin as an anticoagulant. Typically blood samples were collected at 0.08, 0.25, 0.5, 1, 2, 4, 6, 8, and 24 h post dose. Blood samples were centrifuged at 4000 rpm for 10 min. Plasma was separated and stored frozen at −80° C. until analysis. The concentrations of the test compounds were quantified in plasma by qualified LC-MS/MS method using suitable extraction technique. The test compounds were quantified in the calibration range around 1-1000 ng/mL in plasma. Study samples were analyzed using calibration samples in the batch and quality control samples spread across the batch.
Pharmacokinetic parameters Cmax, AUCt, t1/2. Clearance and Bioavailability (F) were calculated using standard non-compartmental model by using Phoenix WinNonlin 6.0.4 version software package.

[3] = target: T2, recombinant human D2S receptor (Homo sapiens, UniProt P14416); test: Determination of Kb at D2S receptor, pCRE-Luc reporter gene assay in CHO cells; format: cell-based; conditions: for agonist activity at human recombinant D2S receptor / antagonistic activity at human recombinant D2S receptor: pCRE-Luc reporter gene assay; for Kb: with 0.3 μM Dopamine and 1 μM forskolin, luciferase readout
T2 construct: expressed in transfected cells
Procedure: A stable CHO cell line expressing recombinant human […] receptor and pCRE-Luc reporter system was used for cell-based assay. The assay offers a non-radioactive based approach to determine binding of a compound to GPCRs. In this specific assay, the level of intracellular cAMP which is modulated by activation or inhibition of the receptor is measured. The recombinant cells harbor luciferase reporter gene under the control of cAMP response element.
The above cells were grown in 96 well clear bottom white plates in Hams F12 medium containing 10% fetal bovine serum (FBS). Prior to the addition of compounds or standard agonist, cells were serum starved overnight. Increasing concentrations of test compound were added along with 0.3 μM of Dopamine and 1 μM of forskolin in Opti-MEM medium to the cells. The incubation was continued at 37° C. in CO2 incubator for 4 hours. Medium was removed and cells were washed with phosphate buffered saline. The cells were lysed and luciferase activity was measured in a Luminometer. Luminescence units were plotted against the compound concentrations using GraphPad Prism software. EC50 values of the compounds were defined as the concentration required in reducing the luciferase activity by 50%. The Kb values were calculated by feeding the concentration of agonist used in the assay and its EC50 value in the same software.
References: European Journal of Pharmacology, 2005, 515, 10-19.

[4] = tested on: dopamine receptor; test: Reserpine-induced dihydroxyphenylalanine (DOPA) accumulation assay in rat striatum; format: in vivo; conditions: s.c.
Procedure: Reserpine (5.0 mg/kg, s.c.) was injected, after which rats were fasted for 18 h before sacrifice. […] Each rat was sacrificed and the striatum was dissected out of the whole brain on ice. Each striatum was weighed and homogenized individually in buffer containing 0.01 N hydrochloric acid and 0.2 mg/ml L-cysteine. Supernatants were subjected for quantification of DOPA using HPLC coupled to electrochemical detector.

[5] = tested on: Rats; test: Tardive dyskinesia test (vacuous chewing movements and tongue protrusions); format: in vivo, rat; conditions: 10 mg/kg, p.o. (5 mg twice a day) for 4 weeks
Procedure: Rats weighing 200-230 g were acclimatized to the plexiglass observation cages (30×20×30 cm) equipped with mirrors for 5 min. After acclimatization, basal vacuous chewing movements (VCMs) and tongue protrusions (TPs) of the rats were quantified manually for 5 min. Rats were randomized based on the basal readings. Rats received a single dose of sesame oil (vehicle treatment) or haloperidol decanoate (38 mg/kg, i.m. positive control). Example-2, 10 mg/kg, p.o. ([…]) was administered for 4 weeks. VCMs and TPs were scored on weekly basis for 4 weeks. Tardive dyskinesia is a side effect of antipsychotic medications.

[6] = tested on: Male Wistar rats; test: Rotarod test; format: in vivo, rat; conditions: 30 mg/kg p.o., 60 min prior to trial
Procedure: Male Wistar rats of 200-280 g body weight were used. Rats were weighed and randomized according to their body weights. The animals were habituated on a rotating rod (4 rpm) for 4 times. Animals which successfully stayed on the rotating rod for 60 seconds (out of 4 trials per animal) were selected for further study. […] A single trial was carried out on the next day. Animals that were able to stay on the rotating rod for 60 seconds were chosen for further study. Animals were administered with test compound or vehicle 60 min prior to the trial. The latency to fall from the rotating rod was noted. Rotarod test assesses effects of test compound on motor functions.

[7] = intravenous (bolus) 1 mg/kg, male Wistar rats
[8] = oral (gavage) 3 mg/kg, fasted male Wistar rats

T1 sequence (P28223 whole entry): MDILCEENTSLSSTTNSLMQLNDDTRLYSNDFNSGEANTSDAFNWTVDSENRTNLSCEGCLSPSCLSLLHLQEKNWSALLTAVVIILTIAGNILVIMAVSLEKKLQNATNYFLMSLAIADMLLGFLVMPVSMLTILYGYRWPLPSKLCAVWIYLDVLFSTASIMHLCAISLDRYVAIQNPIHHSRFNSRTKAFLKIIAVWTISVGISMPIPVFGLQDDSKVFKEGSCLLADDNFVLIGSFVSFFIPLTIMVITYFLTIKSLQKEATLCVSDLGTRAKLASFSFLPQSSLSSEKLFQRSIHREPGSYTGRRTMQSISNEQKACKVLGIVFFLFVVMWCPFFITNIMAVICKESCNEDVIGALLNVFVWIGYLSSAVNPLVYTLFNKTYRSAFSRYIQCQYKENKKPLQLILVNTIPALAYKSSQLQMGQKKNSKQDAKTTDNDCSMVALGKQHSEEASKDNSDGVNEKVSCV
T2 sequence (P14416 1-414 isoform P14416-2): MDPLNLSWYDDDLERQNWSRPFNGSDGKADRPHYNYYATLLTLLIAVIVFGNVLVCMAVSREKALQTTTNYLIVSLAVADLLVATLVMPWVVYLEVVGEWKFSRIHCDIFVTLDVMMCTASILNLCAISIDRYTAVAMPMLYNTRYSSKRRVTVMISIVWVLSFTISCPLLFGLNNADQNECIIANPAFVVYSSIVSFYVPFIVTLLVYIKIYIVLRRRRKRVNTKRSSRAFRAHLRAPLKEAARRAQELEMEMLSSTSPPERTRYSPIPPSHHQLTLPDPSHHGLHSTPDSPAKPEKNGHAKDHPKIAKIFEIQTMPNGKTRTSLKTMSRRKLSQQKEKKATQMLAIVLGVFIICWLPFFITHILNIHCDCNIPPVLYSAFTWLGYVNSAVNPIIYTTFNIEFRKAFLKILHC

Row | Structure (SMILES) | Ki ([1]; Ki h5-HT2A) [nM] | AUC(0-t) [2, 7] [ng·h/mL] | clearance [2, 7] [mL/min/kg] | half-life [2, 7] [h] | bioavailability ([2]; male Wistar rats) [%] | AUC(0-t) [2, 8] [ng·h/mL] | Cmax [2, 8] [ng/mL] | half-life [2, 8] [h] | Ki ([1]; read-out: Ki h5-HT2A) [nM] | agonist activity at human recombinant D2S receptor [3] | antagonistic activity at human recombinant D2S receptor [3] | Kb [3] [nM] | change in reserpine elevated DOPA levels in striatum ([4]; 10 mg/kg, rat, reserpine 5.0 mg/kg) | effect of pre-treatment on apomorphine's decrease of reserpine-induced DOPA accumulation ([4]; pre-treatment before apomorphine 0.1 mg/kg, rat striatum) | Inference, tardive dyskinesia like symptoms (VCMs and TPs) [5] | Inference, rotarod test (motor incoordination side effects) [6]
1 | O=C1C[C@@H]2C[C@H]3C[C@H]3N2C(=O)N1CCCCN1CCN(c2nsc3ccccc23)CC1 [Example 11, 3-[4-(4-Benzo[d]isothiazol-3-yl-piperazin-1-yl)-butyl]-hexahydro-1b,3-diaza-cyclopropa[a]indene-2,4-dione oxalate] | 1.02 | 412 ± 44 | 41 ± 5 | 1.3 ± 0.1 | 8 ± 5 | 98 ± 63 | 94 ± 52 | 2 ± 0.2 | – | – | – | – | – | – | – | –
2 | O=C1C[C@@H]2C[C@H](F)CN2C(=O)N1CCCCN1CCN(c2nsc3ccccc23)CC1 [Example 9, 2-[4-(4-Benzo[d]isothiazol-3-yl-piperazin-1-yl)-butyl]-6-fluoro-tetrahydro-pyrrolo[1,2-c]pyrimidine-1,3-dione oxalate] | – | 415 ± 69 | 40 ± 6 | 1.8 ± 0.1 | 14 ± 2 | 178 ± 23 | 164 ± 43 | 1.4 ± 0.3 | 2.49 | – | – | – | – | – | – | –
3 | O=C1C[C@@H]2CCCN2C(=O)N1CCCCN1CCN(c2nsc3ccccc23)CC1 [Example 2, 2-[4-(4-Benzo[d]isothiazol-3-yl-piperazin-1-yl)-butyl]-tetrahydro-pyrrolo[1,2-c]pyrimidine-1,3-dione oxalate] | – | 544 ± 19 | 30 ± 1 | 2 ± 0.7 | 15 ± 3 | 244 ± 53 | 253 ± 59 | 1.3 ± 0.1 | 0.6 | no detectable agonist activity | antagonistic activity | 33 | no change | blocked the effects of apomorphine | Example-2 did not show tardive | No motor incoordination
4 | O=C1C[C@@H]2CCCN2C(=O)N1CCCCN1CCN(c2cccc3sccc23)CC1 [Example 4, 2-[4-(4-Benzo[b]thiophen-4-yl-piperazin-1-yl)-butyl]-tetrahydro-pyrrolo[1,2-c]pyrimidine-1,3-dione oxalate] | – | 350 ± 40 | 48 ± 5 | 0.8 ± 0.2 | 16 ± 1 | 169 ± 14 | 77 ± 2 | 1.1 ± 0.3 | 4.24 | no detectable agonist activity | antagonistic activity | 54.4 | – | – | – | –
